Literature values in patent US7718634B2, “Method of treatment using bisphosphonic acid” (Hoffman-La Roche Inc., priority 2002, dated 2010).

Legend:
bone resorption = conditions: animal models of bone resorption

## CCCCCN(C)CCC(O)(P(=O)(O)O)P(=O)(O)O [ibandronate, 1-hydroxy-3-(N-methyl-N-pentyl)aminopropylidene-1,1-bisphosphonic acid]
Bone resorption; relative to alendronate
  times more potent than alendronate: 10 times
Bone resorption; relative to clodronate
  times more potent than clodronate: 500 times
Bone resorption; relative to pamidronate
  times more potent than pamidronate: 50 times
Bone resorption; relative to risedronate
  times more potent than risedronate: 2 times
osteoclasts; at high doses
  number of osteoclasts: reduces the number of osteoclasts
osteoclasts; in vivo
  bone resorption and mineralization: inhibits bone resorption without any impairment of mineralization
  osteoclastic activity: decrease osteoclastic activity
